# Read-outs that look alike come from different tables or passages of the source.
# Legend:
# [1] = water solubility, naked-eye observation of solutions; assay type: physicochemical
# Excerpt: Then, the experimental results showing the excellent water solubility of the compounds of this invention are illustrated in the following table, the results being the observation results by the naked eyes of the solutions thereof in each concentration as shown in the table.
# [2] = tested on: bacillus megatherium 10778; test: MIC against bacillus megatherium 10778; assay type: cell-based
# Excerpt: (§1) Now, for illustrating the excellent pharmacological effects of the compounds of this invention, the values of MIC (γ/ml) of the compounds against various bacteria are shown in the following table, the compounds of this invention are shown by example numbers.
# [3] = tested on: micrococcus flavus ATCC 10240; test: MIC against micrococcus flavus ATCC 10240; assay type: cell-based; details: ATCC10240
# Excerpt: as §1
# [4] = tested on: Klebsiella pneumoniae ATCC 10031; test: MIC against Klebsiella pneumoniae ATCC 10031; assay type: cell-based; details: ATCC10031
# Excerpt: as §1
# 8: Klebsiella pneumoniae ATCC 10031
# [5] = tested on: salmonella enteritidis; test: MIC against salmonella enteritidis; assay type: cell-based; details: Salmonella enterica, ENTERITIDIS
# Excerpt: as §1
# 10: salmonella enteritidis
# [6] = tested on: escherichia coli Kauffman 0-1; test: MIC against escherichia coli Kauffman 0-1; assay type: cell-based
# Excerpt: as §1
# 7: escherichia coli Kauffman 0-1
# [7] = tested on: proteus vulgaris OX 19US; test: MIC against proteus vulgaris OX 19US; assay type: cell-based; details: OX19US
# Excerpt: as §1
# 2. proteus vulgaris OX 19US
# [8] = tested on: proteus mirabilis IFM OM-19; test: MIC against proteus mirabilis IFM OM-19; assay type: cell-based; details: IFMOM19
# Excerpt: as §1
# 3. proteus mirabilis IFM OM-19
# [9] = tested on: Shigella flexnori 2a 1675; test: MIC against Shigella flexnori 2a 1675; assay type: cell-based; details: 2A1675
# Excerpt: as §1
# [10] = tested on: Pseudomonas ovalis IAM 1002; test: MIC against Pseudomonas ovalis IAM 1002; assay type: cell-based; details: Pseudomonas putida, IAM1002; Pseudomonas ovalis IAM 1002; read-out: MIC
# Excerpt: as §1
# 6: Pseudomonas ovalis IAM 1002
# [11] = tested on: pseudomonas aeruginosa 99 (Gentamycin resistant); test: MIC against pseudomonas aeruginosa 99 (Gentamycin resistant); assay type: cell-based
# Excerpt: as §1
# 5: pseudomonas aeruginosa 99 (Gentamycin resistant)
# [12] = tested on: Bacillus subtilis ATCC 6633; test: MIC against Bacillus subtilis ATCC 6633; assay type: cell-based; details: ATCC6633
# Excerpt: as §1
# 14: Bacillus subtilis ATCC 6633
# [13] = tested on: Proteus vulgaris OXK US; test: MIC against Proteus vulgaris OXK US; assay type: cell-based
# Excerpt: as §1
# 1: Proteus vulgaris OXK US
# [14] = tested on: Staphylococcus Onuma; test: MIC against Staphylococcus Onuma; assay type: cell-based; details: Staphylococcus
# Excerpt: as §1
# [15] = tested on: staphylococcus aureus 209P; test: MIC against staphylococcus aureus 209P; assay type: cell-based
# Excerpt: as §1
# 16: staphylococcus aureus 209P
# [16] = tested on: staphylococcus Shimanishi; test: MIC against staphylococcus Shimanishi; assay type: cell-based
# Excerpt: as §1
# 17. staphylococcus Shimanishi
# [17] = tested on: salmonella typhi H901W; test: microbe, parasite or virus in culture; assay type: cell-based; details: Salmonella enterica
# [18] = tested on: Shigella sonnei II 37148; test: MIC against Shigella sonnei II 37148; assay type: cell-based; details: II37148
# Excerpt: as §1
# [19] = tested on: pseudomonas aeruginosa ATCC 8689; test: MIC against pseudomonas aeruginosa ATCC 8689; assay type: cell-based; details: ATCC8689
# Excerpt: as §1
# 4: pseudomonas aeruginosa ATCC 8689
# [20] = bacillus megatherium 10778, read-out: MIC
# [21] = micrococcus flavus ATCC 10240, read-out: MIC
# [22] = proteus vulgaris OX 19US, read-out: MIC
# [23] = pseudomonas aeruginosa 99 (Gentamycin resistant), read-out: MIC
# [24] = Bacillus subtilis ATCC 6633, read-out: MIC
# [25] = staphylococcus Shimanishi, read-out: MIC
# [26] = pseudomonas aeruginosa ATCC 8689, read-out: MIC
# [27] = Proteus vulgaris OXK US, read-out: MIC
# [28] = Klebsiella pneumoniae ATCC 10031, read-out: MIC
# [29] = escherichia coli Kauffman 0-1, read-out: MIC
SMILES,"MIC [2, 20]","MIC [3, 21]",MIC ([4]; Klebsiella pneumoniae),MIC [5],MIC ([6]; Escherichia coli),MIC [8],MIC [9],MIC [10],"MIC [11, 23]","MIC [12, 24]",MIC [14],MIC [17],MIC [18],"MIC [19, 26]","MIC [13, 27]",MIC ([19]; Pseudomonas aeruginosa),also measured
"Nc1cc(Cl)cc(SCC2=C(C(=O)O)N3C(=O)C(NC(=O)C(NC(=O)c4cccnc4)c4ccccc4)C3SC2)n1 (stereo not drawn) [Contrast, 7-(α-nicotinoylamido-α-phenylacetamido)-3-(2-amino-4-chloropyidin-6-ylthiomethyl)-Δ ^3-cephem-carboxylic acid, reference compound]",–,–,–,–,–,–,–,–,–,–,–,–,–,–,–,–,water solubility (appearance of solution by the naked eyes) ([1]; concentration 1%): clear; water solubility (appearance of solution by the naked eyes) ([1]; concentration 5%): slightly turbid; water solubility (appearance of solution by the naked eyes) ([1]; concentration 10%): turbid; water solubility (appearance of solution by the naked eyes) ([1]; concentration 20%): gelled
"Cc1nnc(SCC2=C(C(=O)O)N3C(=O)[C@@H](NC(=O)Cn4cnnn4)[C@H]3SC2)s1 [Cephazolin, reference compound]",0.19 µg/mL,0.19 µg/mL,1.56 µg/mL,1.56 µg/mL,1.56 µg/mL,6.25 µg/mL,1.56 µg/mL,> 100 µg/mL,> 100 µg/mL,0.19 µg/mL,1.56 µg/mL,1.56 µg/mL,1.56 µg/mL,> 100 µg/mL,–,–,"MIC [7, 22]: 25 µg/mL; MIC ([13]; Proteus vulgaris): 3.13 µg/mL; MIC ([15]; read-out: MIC): 0.19 µg/mL; MIC [16, 25]: 0.78 µg/mL"
"O=C(O)C1=C(CSc2ccc(S)nn2)CS[C@@H]2[C@H](NC(=O)[C@H](NC(=O)c3cnccc3O)c3ccccc3)C(=O)N12 [Example 1, 7-[D-α-(4-hydroxynicotinoylamido)-α-phenylacetamido]-3-(3-mercaptopyridazin-6-yl)thiomethyl-Δ^3-cephem-4-carboxylic acid]",0.39 µg/mL,3.13 µg/mL,6.25 µg/mL,0.39 µg/mL,6.25 µg/mL,0.39 µg/mL,6.25 µg/mL,25 µg/mL,50 µg/mL,0.39 µg/mL,6.25 µg/mL,0.39 µg/mL,12.5 µg/mL,–,0.19 µg/mL,100 µg/mL,"MIC [7, 22]: 0.78 µg/mL; MIC ([15]; read-out: MIC): 0.39 µg/mL; MIC [16, 25]: 1.56 µg/mL"
"Cn1nnnc1SCC1=C(C(=O)O)N2C(=O)C(NC(=O)C(NC(=O)c3cccnc3)c3ccccc3)C2SC1 (stereo not drawn) [Example C-1, 7-(α-nicotinoylamido-α-phenylacetamido)-3-(1-methyl-1H-tetrazle-5-ylthiomethyl)-Δ^3-cephem-4-carboxylic acid, reference compound]",3.13 µg/mL,1.56 µg/mL,–,–,–,12.5 µg/mL,50 µg/mL,> 100 µg/mL,> 100 µg/mL,3.13 µg/mL,–,> 100 µg/mL,100 µg/mL,> 100 µg/mL,3.13 µg/mL,–,"MIC [4, 28]: 12.5 µg/mL; MIC [6, 29]: 50 µg/mL"
"Cc1nnc(SCC2=C(C(=O)O)N3C(=O)C(NC(=O)C(NC(=O)c4cccnc4)c4ccccc4)C3SC2)s1 (stereo not shown) [Example C-2, reference compound]",3.13 µg/mL,1.56 µg/mL,–,–,–,25 µg/mL,50 µg/mL,> 100 µg/mL,> 100 µg/mL,1.56 µg/mL,–,> 100 µg/mL,100 µg/mL,> 100 µg/mL,6.25 µg/mL,–,"MIC [4, 28]: 12.5 µg/mL; MIC [6, 29]: 100 µg/mL"
"CC(=O)OCC1=C(C(=O)O)N2C(=O)[C@@H](NC(=O)Cc3cccs3)[C@H]2SC1 [Cephalothin, reference compound]",–,–,0.78 µg/mL,0.39 µg/mL,3.13 µg/mL,–,6.25 µg/mL,–,–,–,0.39 µg/mL,1.56 µg/mL,6.25 µg/mL,–,–,> 100 µg/mL,MIC ([7]; Proteus vulgaris): 12.5 µg/mL; MIC ([11]; Pseudomonas aeruginosa): > 100 µg/mL; MIC ([12]; Bacillus subtilis): < 0.09 µg/mL; MIC [15]: 0.19 µg/mL; MIC ([16]; Staphylococcus): 0.39 µg/mL
"CC1=C(C(=O)O)N2C(=O)[C@@H](NC(=O)[C@H](N)c3ccccc3)[C@H]2SC1 [Cephalexin, reference compound]",–,–,3 µg/mL,6.25 µg/mL,10 µg/mL,–,6.25 µg/mL,–,–,–,12.5 µg/mL,6.25 µg/mL,6.25 µg/mL,–,–,> 100 µg/mL,"MIC ([2]; Bacillus, 10778): 0.78 µg/mL; MIC ([3]; Micrococcus flavus): 1.56 µg/mL; MIC ([7]; Proteus vulgaris): 30 µg/mL; MIC ([12]; Bacillus subtilis): 0.78 µg/mL; MIC ([13]; Proteus vulgaris): 30 µg/mL; MIC [15]: 1.56 µg/mL; MIC ([16]; Staphylococcus): 6.25 µg/mL"

# Reference: patent publication US4036834A, “Derivatives of 7-(α-hydroxy-substituted pyridyl carboxamido-α p h Δ^3 -cephem-4-carboxylic acid” (Yamanouchi Pharmaceutical Co., Ltd., priority 1974, dated 1977)
